In US20070254312A1, “Protein Kinase Inhibitors and Methods for Identiying Same” (priority 2004, published 2007):
Where two headings read alike, the source gives them in different places. Starred links: 1 amine or outer side, 2 acyl side, 3 side chain; linkers in the order of their positions; H or OH if unused. Non-standard residues stand in square brackets, D forms with d. Residues, ends and D or L forms follow the SMILES beside them. Groups on a side chain read outwards from the residue. *: point of attachment. X1 = N=C(N)NCCC[C@@H](C(=O)[*:2])N(Cc1cccc(O)c1O)[*:1]; Benzoyl(4-NO2) = O=C(c1ccc([N+](=O)[O-])cc1)*; Cysteamide = C(CS[*:3])N[*:1]; Dap = NC[C@H](N)C(=O)O

Legend:
[1] = molecular target: T1, PKCα (Homo sapiens, UniProt P17252); settings: cited from earlier work
[2] = molecular target: T2, PKCδ (Homo sapiens, UniProt Q05655); design: purchased Panvera; settings: literature values; relative to most potently inhibited isoform (=1); cited from earlier work
[3] = molecular target: PKC β1 (Homo sapiens, UniProt P05771); settings: literature values; relative to most potently inhibited isoform (=1); cited from earlier work
[4] = molecular target: T3, PKCε (Homo sapiens, UniProt Q02156); design: purchased Panvera; settings: literature values; relative to most potently inhibited isoform (=1); cited from earlier work
T3 sequence (Q02156 1-737): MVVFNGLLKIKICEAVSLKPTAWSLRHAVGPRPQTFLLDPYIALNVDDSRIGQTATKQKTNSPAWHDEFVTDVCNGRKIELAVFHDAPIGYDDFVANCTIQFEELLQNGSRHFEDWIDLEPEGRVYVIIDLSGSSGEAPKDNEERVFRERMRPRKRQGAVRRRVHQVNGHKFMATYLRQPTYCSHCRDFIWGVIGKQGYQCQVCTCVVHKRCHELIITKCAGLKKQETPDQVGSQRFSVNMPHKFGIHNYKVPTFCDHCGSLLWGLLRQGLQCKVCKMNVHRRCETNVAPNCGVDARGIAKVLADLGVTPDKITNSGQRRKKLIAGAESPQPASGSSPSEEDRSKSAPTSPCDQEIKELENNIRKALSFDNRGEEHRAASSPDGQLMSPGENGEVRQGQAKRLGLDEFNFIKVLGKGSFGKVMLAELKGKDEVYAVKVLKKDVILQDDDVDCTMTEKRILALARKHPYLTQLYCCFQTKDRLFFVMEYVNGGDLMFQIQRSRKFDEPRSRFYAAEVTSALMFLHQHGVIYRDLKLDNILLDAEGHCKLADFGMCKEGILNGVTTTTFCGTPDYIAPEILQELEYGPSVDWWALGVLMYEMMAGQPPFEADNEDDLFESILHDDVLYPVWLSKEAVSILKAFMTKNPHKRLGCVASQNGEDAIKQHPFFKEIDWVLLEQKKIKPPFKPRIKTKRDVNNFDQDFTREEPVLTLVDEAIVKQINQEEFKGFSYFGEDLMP

[5] = molecular target: T4, PKCζ (Homo sapiens, UniProt Q05513); design: purchased Panvera; settings: literature values; relative to most potently inhibited isoform (=1); cited from earlier work
T4 sequence (Q05513 1-592): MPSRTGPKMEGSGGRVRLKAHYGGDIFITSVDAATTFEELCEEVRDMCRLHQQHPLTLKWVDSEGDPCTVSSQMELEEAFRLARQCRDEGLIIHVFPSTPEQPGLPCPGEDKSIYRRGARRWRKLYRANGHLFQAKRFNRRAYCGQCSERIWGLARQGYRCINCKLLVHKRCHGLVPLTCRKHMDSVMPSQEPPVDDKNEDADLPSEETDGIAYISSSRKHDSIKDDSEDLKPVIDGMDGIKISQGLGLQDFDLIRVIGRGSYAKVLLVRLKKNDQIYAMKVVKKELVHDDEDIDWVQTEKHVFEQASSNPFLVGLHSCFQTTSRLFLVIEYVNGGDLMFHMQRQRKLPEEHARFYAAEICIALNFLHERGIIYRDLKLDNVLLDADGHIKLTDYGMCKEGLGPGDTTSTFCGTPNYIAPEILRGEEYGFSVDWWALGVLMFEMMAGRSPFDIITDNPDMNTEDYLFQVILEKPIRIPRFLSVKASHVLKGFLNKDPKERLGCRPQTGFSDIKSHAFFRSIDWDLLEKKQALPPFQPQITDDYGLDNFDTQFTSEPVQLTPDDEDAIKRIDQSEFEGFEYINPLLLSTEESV

[6] = molecular target: T2, PKCδ; assay: PKC δ screen, IC50 and Ki determination (Example 2); assay type: biochemical; design: purchased Panvera
Protocol: (§1) Protein Kinase C Assays. The peptides […] (for PKC α, β and γ) and […] (for PKC δ, ε, θ, η, τ, and ζ) were used as substrates. […] Total reaction volume in each well was 50 μL. […] Following an additional 5 min incubation at ambient temperature, 75 μL from each reaction well was transferred into each well of a Unifilter (P81 cellulose phosphate paper) assay plate and washed four times with 0.1% phosphoric acid in water. […] Lead compounds from the library were combined into a single 96 well plate and re-assayed as described above in order to identify the best inhibitor. IC50 determinations of resynthesized inhibitor leads for individual PKC isoforms. Assays were performed in triplicate at pH 7.5 and thermostatically maintained at 30° C. using a Boekel constant temperature device. […] The IC50 values for pure compounds as inhibitors were calculated based on the experimental data using GraFit (Erithacus Software Limited). Protein kinase C δ, ε, θ, and η: As described for PKC α, β, and γ except that the assay was performed in the absence of CaCl2. Protein kinase C τ and ζ: As described for PKC α, β, and γ except that the assay was performed in the absence of CaCl2 and DAG. […] Total reaction volume in each well was 50 μL. All the wells were tested in the same plate and each concentration was tested in triplicate. […] Double reciprocal plots were obtained at different concentrations of substrates. Ki values were calculated using Enzyme Kinetics, SigmaPlot (SPSS Inc.).

[7] = molecular target: T4, PKCζ; assay: PKC ζ screen, IC50 and Ki determination (Example 2); assay type: biochemical; design: purchased Panvera; settings: relative to most potently inhibited isoform (=1): δ for F, ζ for G
Protocol: as §1

[8] = molecular target: T5, PKC βI (Homo sapiens, UniProt P05771); assay: IC50 determination for individual PKC isoforms (Example 2); assay type: biochemical; settings: relative to most potently inhibited isoform (=1): δ for F, ζ for G
T5 construct: purchased Panvera
Protocol: (§2) Protein Kinase C Assays. The peptides […] (for PKC α, β and γ) and […] (for PKC δ, ε, θ, η, τ, and ζ) were used as substrates. IC50 determinations of resynthesized inhibitor leads for individual PKC isoforms. Assays were performed in triplicate at pH 7.5 and thermostatically maintained at 30° C. using a Boekel constant temperature device. […] The IC50 values for pure compounds as inhibitors were calculated based on the experimental data using GraFit (Erithacus Software Limited). Protein kinase C δ, ε, θ, and η: As described for PKC α, β, and γ except that the assay was performed in the absence of CaCl2. Protein kinase C τ and ζ: As described for PKC α, β, and γ except that the assay was performed in the absence of CaCl2 and DAG.

[9] = molecular target: T1, PKCα; assay: as above; assay type: biochemical; settings: relative to most potently inhibited isoform (=1): δ for F, ζ for G
Protocol: as §2

[10] = molecular target: T6, PKC ι (Homo sapiens, UniProt P41743); assay: as above; assay type: biochemical; settings: relative to most potently inhibited isoform (=1): δ for F, ζ for G; text prints τ
T6 construct: purchased Panvera
T6 sequence (P41743 1-596): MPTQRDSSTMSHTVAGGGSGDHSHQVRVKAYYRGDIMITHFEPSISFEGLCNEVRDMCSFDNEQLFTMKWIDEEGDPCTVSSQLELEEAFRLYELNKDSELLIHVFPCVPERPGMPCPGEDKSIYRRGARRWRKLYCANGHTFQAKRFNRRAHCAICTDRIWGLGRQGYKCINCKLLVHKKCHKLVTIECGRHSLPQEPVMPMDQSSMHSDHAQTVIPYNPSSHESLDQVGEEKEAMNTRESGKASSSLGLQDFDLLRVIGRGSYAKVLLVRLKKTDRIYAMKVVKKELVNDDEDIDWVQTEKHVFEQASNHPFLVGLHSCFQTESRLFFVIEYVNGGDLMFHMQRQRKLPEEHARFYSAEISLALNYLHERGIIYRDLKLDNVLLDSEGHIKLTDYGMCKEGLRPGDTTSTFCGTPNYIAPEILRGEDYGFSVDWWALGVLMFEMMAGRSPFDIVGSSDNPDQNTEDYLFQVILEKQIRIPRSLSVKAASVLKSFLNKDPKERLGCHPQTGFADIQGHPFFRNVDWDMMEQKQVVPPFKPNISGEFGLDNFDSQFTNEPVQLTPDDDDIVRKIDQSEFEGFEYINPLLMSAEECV
Protocol: as §2

[11] = molecular target: PKCη (Homo sapiens, UniProt P24723); assay: as above; assay type: biochemical; design: purchased Panvera; settings: relative to most potently inhibited isoform (=1): δ for F, ζ for G
Protocol: as §2

[12] = molecular target: T3, PKCε; assay: as above; assay type: biochemical; design: purchased Panvera; settings: relative to most potently inhibited isoform (=1): δ for F, ζ for G
Protocol: as §2

[13] = molecular target: PKCγ (Homo sapiens, UniProt P05129); assay: as above; assay type: biochemical; design: purchased Panvera; settings: relative to most potently inhibited isoform (=1): δ for F, ζ for G
Protocol: as §2

[14] = molecular target: PKCθ (Homo sapiens, UniProt Q04759); assay: as above; assay type: biochemical; design: purchased Panvera; settings: relative to most potently inhibited isoform (=1): δ for F, ζ for G
Protocol: as §2

T2 sequence (Q05655 whole entry, canonical isoform): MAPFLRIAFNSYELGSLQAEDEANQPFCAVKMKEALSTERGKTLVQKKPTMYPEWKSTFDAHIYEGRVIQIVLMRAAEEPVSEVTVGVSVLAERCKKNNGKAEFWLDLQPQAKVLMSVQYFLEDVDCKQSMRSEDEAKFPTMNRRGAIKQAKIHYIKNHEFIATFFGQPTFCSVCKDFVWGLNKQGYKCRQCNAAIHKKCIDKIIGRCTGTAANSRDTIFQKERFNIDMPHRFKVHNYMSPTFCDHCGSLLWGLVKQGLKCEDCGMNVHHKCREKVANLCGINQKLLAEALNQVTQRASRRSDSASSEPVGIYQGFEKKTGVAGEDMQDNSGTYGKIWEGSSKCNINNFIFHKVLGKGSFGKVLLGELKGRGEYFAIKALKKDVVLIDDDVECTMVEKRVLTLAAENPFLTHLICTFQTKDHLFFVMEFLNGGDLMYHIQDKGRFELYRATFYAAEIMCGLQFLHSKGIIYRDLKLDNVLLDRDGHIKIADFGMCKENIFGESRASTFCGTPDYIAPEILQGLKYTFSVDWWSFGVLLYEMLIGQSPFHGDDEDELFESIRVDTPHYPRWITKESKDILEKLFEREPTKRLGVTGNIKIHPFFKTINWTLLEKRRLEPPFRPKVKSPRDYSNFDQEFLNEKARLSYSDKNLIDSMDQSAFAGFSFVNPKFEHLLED
PKC β1, sequence (P05771 whole entry, canonical isoform): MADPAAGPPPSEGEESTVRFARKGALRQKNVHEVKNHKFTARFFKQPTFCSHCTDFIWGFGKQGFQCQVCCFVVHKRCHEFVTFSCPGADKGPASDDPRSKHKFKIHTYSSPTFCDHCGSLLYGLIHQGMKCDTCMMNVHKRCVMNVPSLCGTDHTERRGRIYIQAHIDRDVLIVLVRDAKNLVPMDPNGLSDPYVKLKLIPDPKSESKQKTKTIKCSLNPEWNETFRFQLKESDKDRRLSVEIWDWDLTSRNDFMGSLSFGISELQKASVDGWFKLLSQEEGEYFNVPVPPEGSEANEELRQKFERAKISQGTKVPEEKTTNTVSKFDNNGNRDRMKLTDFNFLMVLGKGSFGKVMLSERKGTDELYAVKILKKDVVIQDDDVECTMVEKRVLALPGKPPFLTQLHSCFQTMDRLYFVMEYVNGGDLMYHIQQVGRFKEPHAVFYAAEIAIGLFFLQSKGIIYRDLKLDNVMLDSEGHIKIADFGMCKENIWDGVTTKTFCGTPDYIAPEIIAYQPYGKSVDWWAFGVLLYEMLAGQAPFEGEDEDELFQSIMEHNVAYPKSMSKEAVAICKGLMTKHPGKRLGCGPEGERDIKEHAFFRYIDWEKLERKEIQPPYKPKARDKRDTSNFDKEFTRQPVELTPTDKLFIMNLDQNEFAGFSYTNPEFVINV
T5 sequence (P05771 whole entry, canonical isoform): as above
PKCη, sequence (P24723 whole entry, canonical isoform): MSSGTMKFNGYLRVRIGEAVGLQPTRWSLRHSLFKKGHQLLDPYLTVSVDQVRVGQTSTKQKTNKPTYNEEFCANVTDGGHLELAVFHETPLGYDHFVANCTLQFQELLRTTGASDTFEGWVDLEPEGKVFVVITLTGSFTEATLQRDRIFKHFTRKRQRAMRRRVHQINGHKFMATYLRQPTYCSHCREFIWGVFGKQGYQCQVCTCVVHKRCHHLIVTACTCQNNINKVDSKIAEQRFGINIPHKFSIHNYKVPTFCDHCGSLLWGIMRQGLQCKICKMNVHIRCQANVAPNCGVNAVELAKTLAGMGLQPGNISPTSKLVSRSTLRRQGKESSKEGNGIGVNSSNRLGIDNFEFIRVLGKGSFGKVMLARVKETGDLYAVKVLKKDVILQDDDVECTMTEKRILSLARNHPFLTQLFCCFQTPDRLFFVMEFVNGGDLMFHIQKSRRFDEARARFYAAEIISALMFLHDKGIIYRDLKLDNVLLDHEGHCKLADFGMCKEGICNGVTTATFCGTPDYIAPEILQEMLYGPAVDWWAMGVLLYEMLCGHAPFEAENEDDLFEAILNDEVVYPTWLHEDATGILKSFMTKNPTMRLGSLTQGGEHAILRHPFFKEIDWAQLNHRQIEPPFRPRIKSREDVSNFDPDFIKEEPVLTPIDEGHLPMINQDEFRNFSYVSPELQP
PKCθ, sequence (Q04759 whole entry, canonical isoform): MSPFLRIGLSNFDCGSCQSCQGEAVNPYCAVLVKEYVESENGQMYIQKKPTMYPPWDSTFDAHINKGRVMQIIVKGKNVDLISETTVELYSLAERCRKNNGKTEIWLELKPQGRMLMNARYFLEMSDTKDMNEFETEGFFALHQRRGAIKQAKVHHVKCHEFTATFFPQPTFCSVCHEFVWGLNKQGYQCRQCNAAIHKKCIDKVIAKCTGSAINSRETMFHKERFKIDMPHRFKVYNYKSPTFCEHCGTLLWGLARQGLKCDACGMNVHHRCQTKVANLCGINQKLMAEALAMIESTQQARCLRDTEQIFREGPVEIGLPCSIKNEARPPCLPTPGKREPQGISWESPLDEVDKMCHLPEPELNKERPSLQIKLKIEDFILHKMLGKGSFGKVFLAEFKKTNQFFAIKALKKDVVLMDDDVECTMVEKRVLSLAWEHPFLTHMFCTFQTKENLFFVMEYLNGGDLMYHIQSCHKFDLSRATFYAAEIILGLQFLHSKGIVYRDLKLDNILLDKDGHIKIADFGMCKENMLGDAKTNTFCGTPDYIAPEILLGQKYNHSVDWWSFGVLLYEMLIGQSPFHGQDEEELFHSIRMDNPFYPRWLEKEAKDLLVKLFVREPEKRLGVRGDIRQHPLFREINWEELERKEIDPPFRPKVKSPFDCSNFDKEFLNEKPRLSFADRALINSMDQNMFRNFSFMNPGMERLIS

| IC50 [6] | Fold selectivity (IC50), PKC ζ [7] | Fold selectivity (IC50), PKC β1 [8] | Fold selectivity (IC50), PKC α [9] | Fold selectivity (IC50), PKC ι [10] | Fold selectivity (IC50), PKC η [11] | Fold selectivity (IC50), PKC ε [12] | Fold selectivity (IC50), PKC γ [13] | Fold selectivity (IC50), PKC θ [14] | Fold selectivity (IC50), PKC δ ([6]; relative to most potently inhibited isoform (=1): δ for F, ζ for G) | Ki ([6]; versus peptide substrate) | Structure (SMILES) | IC50 ([1]; literature value, read-out: IC50 of the most potently inhibited isoform, PKC α (in parentheses)) | Fold selectivity (IC50), PKC α ([1]; literature values, relative to most potently inhibited isoform (=1)) | Fold selectivity (IC50), PKC δ [2] | Fold selectivity (IC50), PKC β1 [3] | Fold selectivity (IC50), PKC ε [4] | Fold selectivity (IC50), PKC ζ [5] |
| --- | --- | --- | --- | --- | --- | --- | --- | --- | --- | --- | --- | --- | --- | --- | --- | --- | --- |
| – | – | – | – | – | – | – | – | – | – | – | CN(C)CCCn1cc(C2=C(c3c[nH]c4ccccc34)C(=O)NC2=O)c2ccccc21 [Gö6850] | 8.4 nM | 1 fold | 25 fold | 2 fold | 16 fold | 690 fold |
| 50000 nM | – | – | – | – | – | – | – | – | – | – | CSCC[C@H](NC(=O)[C@H](Cc1ccccc1)NC(=O)[C@H](CNC(C)=O)NC(=O)CNC(=O)[C@H](CCC(N)=O)NC(=O)[C@H](CCCNC(=N)N)NC(=O)[C@H](CCCNC(=N)N)NC(C)=O)C(=O)N[C@@H](Cc1ccc(O)cc1)C(=O)N[C@@H](Cc1ccccc1)C(=O)NCCS [Compound A] (Ac-RRQG[Dap](Ac)FMYF-Cysteamide) | – | – | – | – | – | – |
| 18 ± 2 nM | 200 fold | 172 fold | 944 fold | 26 fold | 683 fold | 489 fold | 500 fold | 761 fold | 1 fold | 8 ± 1 nM | CSCC[C@H](NC(=O)[C@H](Cc1ccccc1)NC(=O)[C@H](CNC(=O)CNC(=O)c1ccc([N+](=O)[O-])cc1)NC(=O)CNC(=O)[C@H](CCC(N)=O)NC(=O)[C@H](CCCNC(=N)N)NC(=O)[C@H](CCCNC(=N)N)NCc1cccc(O)c1O)C(=O)N[C@@H](Cc1ccc(O)cc1)C(=O)N[C@@H](Cc1ccccc1)C(=O)NCCS [Compound F] (H-[X1]RQG[Dap]([Gly-Benzoyl(4-NO2)])FMYF-Cysteamide) | – | – | – | – | – | – |
